Each structure is given as a SMILES string.

The target in experiment [1] is T1, K103N/Y181C double mutant RT (HIV-1 RT) (Human immunodeficiency virus type 1 group M subtype B, UniProt P03366, K702N/Y780C).
T1 construct: mutations that occur in the reverse transcriptase segment of the pol gene
Put plainly: biochemical.

Experiment [2] has as its target T2, V106A mutant RT (HIV-1 RT) (Human immunodeficiency virus type 1 group M subtype B, UniProt P03366, V705A).
T2 construct: mutations that occur in the reverse transcriptase segment of the pol gene
Description: biochemical. The settings on record: IC50 V106A (nM).

The target in the next experiment is T3, WT RT (HIV-1 RT) (Human immunodeficiency virus type 1 group M subtype B, UniProt P03366).
T3 construct: mutations that occur in the reverse transcriptase segment of the pol gene
Put plainly: biochemical.

Experiment [3] concerns the target T4, Y188L mutant RT (HIV-1 RT) (Human immunodeficiency virus type 1 group M subtype B, UniProt P03366, Y787L).
T4 construct: mutations that occur in the reverse transcriptase segment of the pol gene
Put plainly: biochemical. The settings on record: IC50 Y188L (nM).

For experiment [4], the system named is WT RT (HIV-1 wild type strain). Description: EC50 assay, WT RT strain. Format: cell-based. The settings on record: Human immunodeficiency virus 1, read-out: EC50 WT RT (nM). The source says: (§1) Reverse TranscriptASE (RT) Assays
(§2) The assays are as described in WO 01/96338A1, the contents of which are hereby incorporated herein. The results are listed in Tables 8 as IC50(nM) and EC50(nM).

Experiment [5] has as its system V106A (HIV-1 mutant strain). Description: EC50 assay, V106A strain. It counts as cell-based. The settings on record: Human immunodeficiency virus 1, read-out: EC50 V106A (nM).
Description: as §1, §2

The subject of experiment [6] is K103N/Y181C (HIV-1 double mutant strain). Put plainly: EC50 assay, K103N/Y181C strain. The settings on record: Human immunodeficiency virus 1, read-out: EC50 K103N/Y181C (nM), K103N/Y181C double mutant. Format: cell-based.
Description: as §1, §2

As for `CCN1c2ncc(CCOc3ccc(NS(=O)(=O)C(F)(F)F)c4ccccc34)cc2C(=O)N(C)c2ccc(F)nc21` [Entry 2002], the 50% inhibitory concentration (IC50) – broadly, the concentration that gives 50% inhibition – was 100 to 1000 nM in experiment [1], greater than 1000 nM in experiment [2], less than 100 nM at WT RT (HIV-1 RT) and greater than 1000 nM in experiment [3]. For the same compound, the EC50 was less than 100 nM in experiment [4], 100 to 1000 nM in experiment [5] and less than 100 nM in experiment [6].
Turning to `CCN1c2ncc(CCOc3ccc4cc(C(=O)NC(C)(C)C(=O)O)ccc4c3)cc2C(=O)N(C)c2cccnc21` [Entry 3003], the IC50 in experiment [1] was 100 to 1000 nM; in experiment [2], 100 to 1000 nM; at WT RT (HIV-1 RT), less than 100 nM; in experiment [3] it was greater than 1000 nM. Besides, the results for the EC50 in experiment [4] and in experiment [6] were less than 100 nM and 100 to 1000 nM, respectively.
Regarding `CCN1c2ncc(CCOc3ccc4cc(CC(=O)NN)ccc4c3)cc2C(=O)N(C)c2cccnc21` [Entry 3005], the IC50 was 100 to 1000 nM in experiment [1], less than 100 nM in experiment [2], less than 100 nM against WT RT (HIV-1 RT) and 100 to 1000 nM in experiment [3]. Moreover, the EC50 in experiment [4] and in experiment [6] was less than 100 nM in each case.
Consider `CCN1c2ncc(CCOc3ccc(C(=O)O)c4c3CCC4)cc2C(=O)N(C)c2cccnc21` [Entry 4001], for which the IC50 in experiment [1] was 100 to 1000 nM; in experiment [2], 100 to 1000 nM; at WT RT (HIV-1 RT), less than 100 nM; in experiment [3], greater than 1000 nM. Also, the EC50 in experiment [4] and in experiment [6] was less than 100 nM each time.
Regarding `CCN1c2ncc(CCOc3ccc(C(=O)O)c4c3CCC4)cc2C(=O)N(C)c2ccc(Cl)nc21` [Entry 4002], the concentration for half-maximal inhibition (IC50) was less than 100 nM in experiment [1], 100 to 1000 nM in experiment [2], less than 100 nM on WT RT (HIV-1 RT) and 100 to 1000 nM in experiment [3]. The EC50 in experiment [4] and in experiment [6] was less than 100 nM in each case.
For the compound `CCN1c2ncc(CCOc3ccc(C(=O)O)c4c3CCCC4)cc2C(=O)N(C)c2cccnc21` [Entry 5001], the concentration for half-maximal inhibition (IC50) in experiment [1] is 100 to 1000 nM; in experiment [2], greater than 1000 nM; against WT RT (HIV-1 RT), less than 100 nM; in experiment [3], greater than 1000 nM. Besides, the results for the EC50 in experiment [4], in experiment [5] and in experiment [6] were less than 100 nM, 100 to 1000 nM and less than 100 nM, respectively.
Regarding `CCN1c2ncc(CCOc3ccc(C(=O)O)c4c3CCCC4)cc2C(=O)N(C)c2ccc(Cl)nc21` [Entry 5002], the IC50 was 100 to 1000 nM in experiment [1], greater than 1000 nM in experiment [2], less than 100 nM against WT RT (HIV-1 RT) and 100 to 1000 nM in experiment [3]. Besides, the EC50 in experiment [4] and in experiment [6] was less than 100 nM each time.
On to `CCN1c2ncc(CCOc3ccc(C(=O)O)c4c3CCCC4)cc2C(=O)N(C)c2ccc(F)nc21` [Entry 5003], for which the half-maximal inhibitory concentration (IC50) in experiment [1] was 100 to 1000 nM; in experiment [2], greater than 1000 nM; at WT RT (HIV-1 RT), less than 100 nM; in experiment [3] it was 100 to 1000 nM. Besides, the EC50 in experiment [4] and in experiment [6] was less than 100 nM in each case.
In the case of `CCN1c2ncc(CCOc3ccc(C(=O)O)c4c3CCCC4)cc2C(=O)N(C)c2ccc(C)nc21` [Entry 5004], the IC50 in experiment [1] was 100 to 1000 nM; in experiment [2], greater than 1000 nM; against WT RT (HIV-1 RT), less than 100 nM; in experiment [3], 100 to 1000 nM. Also, the EC50 in experiment [4] and in experiment [6] was less than 100 nM in each case.
Consider `CCN1c2ncc(CCOc3ccc(C(=O)O)c4c3CCCC4)cc2C(=O)N(C)c2ccc(OC)nc21` [Entry 5005], for which the IC50 in experiment [1] was 100 to 1000 nM; in experiment [2] it was greater than 1000 nM; at WT RT (HIV-1 RT) it was less than 100 nM; in experiment [3], 100 to 1000 nM. Besides, the EC50 in experiment [4] and in experiment [6] was less than 100 nM in each case.
Regarding `CCN1c2ncc(CCOc3ccc(CC(=O)O)c4c3CCCC4)cc2C(=O)N(C)c2ccc(Cl)nc21` [Entry 5007], the IC50 in experiment [1] is 100 to 1000 nM; in experiment [2], 100 to 1000 nM; at WT RT (HIV-1 RT) it was less than 100 nM; in experiment [3], 100 to 1000 nM. Further, the EC50 in experiment [4] and in experiment [6] was less than 100 nM each time.
Regarding `CCN1c2ncc(CCOc3ccc(CC(=O)O)c4c3CCCC4)cc2C(=O)N(C)c2ccc(F)nc21` [Entry 5008], the IC50 in experiment [1] is 100 to 1000 nM; in experiment [2], greater than 1000 nM; against WT RT (HIV-1 RT) it was less than 100 nM; in experiment [3], greater than 1000 nM. The EC50 in experiment [4] and in experiment [6] was less than 100 nM each time.
`CCN1c2ncc(CCOc3ccc(CCC(=O)O)c4c3CCCC4)cc2C(=O)N(C)c2cccnc21` [Entry 5009]: the IC50 in experiment [1] was 100 to 1000 nM; in experiment [2], greater than 1000 nM; on WT RT (HIV-1 RT) it was less than 100 nM; in experiment [3], greater than 1000 nM. The EC50 in experiment [4] and in experiment [6] was less than 100 nM throughout.
Turning to `CCN1c2ncc(CCOc3ccc(CCC(=O)O)c4c3CCCC4)cc2C(=O)N(C)c2ccc(Cl)nc21` [Entry 5010], the 50% inhibitory concentration (IC50) in experiment [1] was 100 to 1000 nM; in experiment [2], greater than 1000 nM; against WT RT (HIV-1 RT) it was less than 100 nM; in experiment [3], 100 to 1000 nM. For the same compound, the EC50 in experiment [4] and in experiment [6] was less than 100 nM throughout.
Regarding `CCN1c2ncc(CCOc3ccc(C(=O)O)c4c3CCN(C(=O)OC)C4)cc2C(=O)N(C)c2cccnc21` [Entry 7002], the concentration for half-maximal inhibition (IC50) in experiment [1] was 100 to 1000 nM; in experiment [2] it was greater than 1000 nM; against WT RT (HIV-1 RT) it was less than 100 nM; in experiment [3], 100 to 1000 nM. In addition, the EC50 in experiment [4] is less than 100 nM; in experiment [5], 100 to 1000 nM; in experiment [6], less than 100 nM.
Regarding `CCN1c2ncc(CCOc3ccc(C(=O)O)c4c3CCN(C(=O)OC(C)(C)C)C4)cc2C(=O)N(C)c2cccnc21` [Entry 7003], the IC50 in experiment [1] was 100 to 1000 nM; in experiment [2] it was greater than 1000 nM; on WT RT (HIV-1 RT), less than 100 nM; in experiment [3] it was 100 to 1000 nM. The EC50 in experiment [4] and in experiment [6] was less than 100 nM each time.
Consider `CCNC(=O)N1CCc2c(OCCc3cnc4c(c3)C(=O)N(C)c3cccnc3N4CC)ccc(C(=O)O)c2C1` [Entry 7006], for which the IC50 in experiment [1] was 100 to 1000 nM; in experiment [2], 100 to 1000 nM; against WT RT (HIV-1 RT) it was less than 100 nM; in experiment [3], greater than 1000 nM. The values for the EC50 in experiment [4] and in experiment [6] were 100 to 1000 nM and greater than 1000 nM, respectively.
Take `CCN1c2ncc(CCOc3ccc(C(=O)O)c4c3CCN(C(=O)N(C)C)C4)cc2C(=O)N(C)c2cccnc21` [Entry 7007]: the IC50 in experiment [1] was less than 100 nM; in experiment [2] it was 100 to 1000 nM; on WT RT (HIV-1 RT), less than 100 nM; in experiment [3], 100 to 1000 nM. For the same compound, the EC50 in experiment [4] and in experiment [6] was less than 100 nM in each case.
For `CCN1c2ncc(CCOc3ccc(C(=O)O)c4c3CCN(S(=O)(=O)N(C)C)C4)cc2C(=O)N(C)c2cccnc21` [Entry 7008], the IC50 in experiment [1] is less than 100 nM; in experiment [2], 100 to 1000 nM; against WT RT (HIV-1 RT) it was less than 100 nM; in experiment [3] it was 100 to 1000 nM. For the same compound, the EC50 in experiment [4] and in experiment [6] was less than 100 nM in each case.
